Assay results published in PubChem BioAssay AID328 (DTP/NCI, 2004).
Where “and” joins values, the source holds several entries; their conditions need not be identical. Identical values can stand only once. Inconclusive results and toxic doses are left out. How the source made its calls: active means survival T/C of 150% or more; inactive means T/C below 125% in these data.

System: BDF1 mice, P388 leukemia ip, median survival T/C
Assay: NCI In Vivo Anticancer Drug Screen. Data for tumor model P388 Leukemia (intraperitoneal) in B6D2F1 (BDF1) mice
Conditions: endpoint: median survival time, higher = longer survival
Procedure, shortened: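 In tumour-bearing mice, survival after compound treatment is set against the vehicle group and given as a quotient.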

[1] = dose: 25.0 mg/kg/injection, schedule: Q01DX009 (ip), vehicle: saline
[2] = dose: 50.0 mg/kg/injection, schedule: Q04DX003 (ip), vehicle: saline
[3] = dose: 100.0 mg/kg/injection, schedule: Q01DX009 (ip), vehicle: saline with Tween-80
[4] = dose: 200.0 mg/kg/injection, schedule: Q01DX009 (ip), vehicle: saline with Tween-80
[5] = dose: 100.0 mg/kg/injection, schedule: Q01DX009 (ip), vehicle: saline
[6] = dose: 200.0 mg/kg/injection, schedule: Q01DX009 (ip), vehicle: saline
[7] = dose: 100.0 mg/kg/injection, schedule: Q01DX001 (ip), vehicle: Klucel (hydroxypropylcellulose) (HPC)
[8] = dose: 200.0 mg/kg/injection, schedule: Q01DX001 (ip), vehicle: Klucel (hydroxypropylcellulose) (HPC)
[9] = dose: 50.0 mg/kg/injection, schedule: Q01DX009 (ip), vehicle: other
[10] = dose: 100.0 mg/kg/injection, schedule: Q01DX009 (ip), vehicle: other

Measured: T/C

O=C(c1ccccc1)N1CC1
inactive: dose: 25.0 mg/kg/injection, schedule: Q01DX009 (ip), vehicle: water 101 % of control | dose: 25.0 mg/kg/injection, schedule: Q04DX003 (ip), vehicle: water 115 % of control | dose: 50.0 mg/kg/injection, schedule: Q04DX003 (ip), vehicle: water 92 % of control | dose: 100.0 mg/kg/injection, schedule: Q04DX003 (ip), vehicle: water 100 % of control | dose: 200.0 mg/kg/injection, schedule: Q04DX003 (ip), vehicle: water 109 % of control | dose: 400.0 mg/kg/injection, schedule: Q01DX009 (ip), vehicle: water 112 % of control | dose: 400.0 mg/kg/injection, schedule: Q04DX003 (ip), vehicle: water 115 % of control

CCCCCCCCCCCCCC[S+](C)C
inactive: dose: 12.5 mg/kg/injection, schedule: Q01DX009 (ip), vehicle: saline 118 % of control | [1] 100 % of control | dose: 25.0 mg/kg/injection, schedule: Q04DX003 (ip), vehicle: saline 100 % of control | [2] 104 % of control

C/C(Cc1ccccc1)=N\O
inactive: [3] 100 % of control | [4] 110 % of control

c1ccc(CSC2=NCCS2)cc1
inactive: [5] 113 % of control | [6] 104 % of control | dose: 400.0 mg/kg/injection, schedule: Q01DX009 (ip), vehicle: saline 113 % of control

C1=C\CCC2SC2CC/1 (stereo not drawn)
inactive: dose: 100.0 mg/kg/injection, schedule: Q04DX002 (ip), vehicle: saline 100 % of control | dose: 200.0 mg/kg/injection, schedule: Q04DX002 (ip), vehicle: saline 97 % of control | dose: 400.0 mg/kg/injection, schedule: Q04DX002 (ip), vehicle: saline 100 % of control

CCOC(CN=Cc1ccc(Cl)c(Cl)c1)OCC
inactive: [7] 100 % of control | [8] 100 % of control | dose: 400.0 mg/kg/injection, schedule: Q01DX001 (ip), vehicle: Klucel (hydroxypropylcellulose) (HPC) 95 % of control

O=C(N=Nc1c(O)[nH]c2c(Cl)cc(Cl)cc12)C(=O)Nc1cccc(C(F)(F)F)c1
inactive: [3] 90 % of control | [4] 96 % of control

C/C(CCCCl)=N/N=C(N)N
inactive: dose: 7.03 mg/kg/injection, schedule: Q01DX001 (ip), vehicle: saline 104 % of control | dose: 14.06 mg/kg/injection, schedule: Q01DX001 (ip), vehicle: saline 100 % of control | dose: 18.75 mg/kg/injection, schedule: Q01DX009 (ip), vehicle: saline 115 % of control | dose: 18.75 mg/kg/injection, schedule: Q04DX003 (ip), vehicle: saline 109 % of control | dose: 37.5 mg/kg/injection, schedule: Q01DX009 (ip), vehicle: saline 115 % of control | dose: 37.5 mg/kg/injection, schedule: Q04DX003 (ip), vehicle: saline 100 % of control | [2] 122 % of control | dose: 75.0 mg/kg/injection, schedule: Q01DX009 (ip), vehicle: saline 115 % of control | dose: 75.0 mg/kg/injection, schedule: Q04DX003 (ip), vehicle: saline 100 % of control

COC(=O)N1c2ccc(OC)cc2C=CC1C#N (stereo not drawn)
inactive: [3] 100 % of control | [4] 100 % of control | dose: 400.0 mg/kg/injection, schedule: Q01DX009 (ip), vehicle: saline with Tween-80 100 % of control

CC1=Nc2ccccc2N(C)/C1=C/C1=C(Cl)C(=O)c2ccccc2C1=O
inactive: dose: 25.0 mg/kg/injection, schedule: Q01DX001 (ip), vehicle: saline with Tween-80 103 % of control | dose: 50.0 mg/kg/injection, schedule: Q01DX001 (ip), vehicle: saline with Tween-80 94 % of control | dose: 100.0 mg/kg/injection, schedule: Q01DX001 (ip), vehicle: saline with Tween-80 108 % of control

CCCCCCCCCCCCCCCCCCCC
inactive: dose: 6.25 mg/kg/injection, schedule: Q04DX003 (ip), vehicle: other 100 % of control | dose: 12.5 mg/kg/injection, schedule: Q04DX003 (ip), vehicle: other 100 % of control | dose: 25.0 mg/kg/injection, schedule: Q04DX003 (ip), vehicle: other 100 % of control | [9] 100 % of control | [10] 100 % of control

COc1cc(C(=O)N(C)C)cc(OC)c1OC
inactive: [1] 112 % of control | dose: 50.0 mg/kg/injection, schedule: Q01DX009 (ip), vehicle: saline 98 % of control | [5] 98 % of control | [6] 101 % of control

CCCCCCCCNCCCCCCCC
inactive: dose: 9.0 mg/kg/injection, schedule: Q01DX009 (ip), vehicle: gum acacia 108 % of control and 113 % of control | dose: 9.0 mg/kg/injection, schedule: Q04DX003 (ip), vehicle: gum acacia 100 % of control | dose: 18.0 mg/kg/injection, schedule: Q01DX009 (ip), vehicle: gum acacia 95 % of control and 108 % of control | dose: 18.0 mg/kg/injection, schedule: Q04DX003 (ip), vehicle: gum acacia 95 % of control | dose: 37.0 mg/kg/injection, schedule: Q01DX009 (ip), vehicle: gum acacia 104 % of control and 116 % of control | dose: 37.0 mg/kg/injection, schedule: Q04DX003 (ip), vehicle: gum acacia 100 % of control

c1ccc2c(c1)C1c3ccccc3C2C2COCC12 (stereo not drawn)
inactive: dose: 25.0 mg/kg/injection, schedule: Q01DX009 (ip), vehicle: Klucel (hydroxypropylcellulose) (HPC) 105 % of control | dose: 50.0 mg/kg/injection, schedule: Q01DX009 (ip), vehicle: Klucel (hydroxypropylcellulose) (HPC) 110 % of control | dose: 75.0 mg/kg/injection, schedule: Q04DX003 (ip), vehicle: Klucel (hydroxypropylcellulose) (HPC) 108 % of control | dose: 100.0 mg/kg/injection, schedule: Q01DX009 (ip), vehicle: Klucel (hydroxypropylcellulose) (HPC) 100 % of control | dose: 150.0 mg/kg/injection, schedule: Q04DX003 (ip), vehicle: Klucel (hydroxypropylcellulose) (HPC) 104 % of control | dose: 300.0 mg/kg/injection, schedule: Q04DX003 (ip), vehicle: Klucel (hydroxypropylcellulose) (HPC) 86 % of control

COc1cc2c(cc1OC)[C@H]1CNC[C@H]1[C@@H](c1ccccc1)C2
inactive: dose: 95.0 mg/kg/injection, schedule: Q01DX001 (ip), vehicle: Klucel (hydroxypropylcellulose) (HPC) 100 % of control | [7] 100 % of control and 110 % of control | dose: 135.0 mg/kg/injection, schedule: Q01DX001 (ip), vehicle: Klucel (hydroxypropylcellulose) (HPC) 104 % of control | [8] 95 % of control and 104 % of control | dose: 300.0 mg/kg/injection, schedule: Q01DX001 (ip), vehicle: Klucel (hydroxypropylcellulose) (HPC) 90 % of control

CC(=O)OC/C(=N\Nc1ccc([N+](=O)[O-])cc1[N+](=O)[O-])c1ccccc1
inactive: dose: 3.13 mg/kg/injection, schedule: Q01DX001 (ip), vehicle: saline with Tween-80 104 % of control | dose: 6.25 mg/kg/injection, schedule: Q01DX001 (ip), vehicle: saline with Tween-80 100 % of control | dose: 12.5 mg/kg/injection, schedule: Q01DX001 (ip), vehicle: saline with Tween-80 95 % of control

COc1ccc(C(=O)C/C(=N\N(C(=O)c2ccc(OC)cc2)c2ccccc2)c2ccc(OC)cc2)cc1
inactive: dose: 50.0 mg/kg/injection, schedule: Q01DX009 (ip), vehicle: saline with Tween-80 104 % of control | [3] 100 % of control | [4] 100 % of control

O=C1CN=C(c2ccccn2)c2cc(Cl)ccc2N1CCO
inactive: dose: 100.0 mg/kg/injection, schedule: Q04DX003 (ip), vehicle: saline with Tween-80 105 % of control | dose: 200.0 mg/kg/injection, schedule: Q04DX003 (ip), vehicle: saline with Tween-80 110 % of control | dose: 400.0 mg/kg/injection, schedule: Q04DX003 (ip), vehicle: saline with Tween-80 115 % of control

CCCCCOc1cc(C(=O)NN)nc(C(=O)NN)c1
inactive: dose: 1.56 mg/kg/injection, schedule: Q01DX009 (ip), vehicle: saline with Tween-80 103 % of control | dose: 3.13 mg/kg/injection, schedule: Q01DX009 (ip), vehicle: saline with Tween-80 111 % of control | dose: 6.25 mg/kg/injection, schedule: Q01DX009 (ip), vehicle: saline with Tween-80 111 % of control | dose: 12.5 mg/kg/injection, schedule: Q01DX009 (ip), vehicle: saline with Tween-80 116 % of control

CSc1cc(C)c(O)c(C)c1
inactive: [9] 104 % of control | [10] 104 % of control | dose: 200.0 mg/kg/injection, schedule: Q01DX009 (ip), vehicle: other 104 % of control

Cc1ccc(C(O)(CS(C)=O)c2ccco2)cc1 (stereo not drawn)
inactive: dose: 50.0 mg/kg/injection, schedule: Q01DX009 (ip), vehicle: saline + alcohol 98 % of control | dose: 100.0 mg/kg/injection, schedule: Q01DX009 (ip), vehicle: saline + alcohol 90 % of control
